According to US20240398831A1, “COMPOSITIONS COMPRISING SMALL MOLECULE REGULATORS OF TUMOR IMMUNITY AND METHODS OF USING SAME” (Duke University, priority 2021, published 2024):

System: CD68+ monocytes/TAMs
Experiment: Single cell RNA sequencing of tumor infiltrating immune cells from iBP tumors
Type: in vivo, mouse
Description: Single Cell RNA sequencing. iBP tumors (three) were pooled and a single cell suspension was isolated. Live tumor infiltrating immune cells (CD45^+ L/D^−) were isolated by cell sorting and resuspended in PBS+0.04% BSA at a concentration of 1000 cells/μL. In total, 10,000 cells were loaded on the 10× Genomics Chromium Controller Single-Cell Instrument (10× Genomics) mixed with reverse transcription reagents along with gel beads and oil to generate single-cell gel beads in emulsions (GEMs). GEM-RT was performed in an Eppendorf Mastercycler Pro (cat #950030020, Eppendorf): 53° C. for 45 min; 85° C. for 5 min; then held at 4° C. After reverse transcription, GEMs were disrupted and the single-stranded cDNA was purified using Dynabeads MyOne Silane beads (cat #37002D, Thermo Fisher Scientific). cDNA was amplified using the Eppendorf Mastercycler Pro (cat #950030020, Eppendorf): 98° C. for 3 min; cycled 11×: 98° C. for 15 s, 67° C. for 20 s, and 72° C. for 1 min; 72° C. for 1 min; held at 4° C. The amplified cDNA product was purified with the SPRIselect Reagent Kit (0.6×SPRI) (cat #B23318, Beckman Coulter). Indexed sequencing libraries were constructed using the reagents in the Chromium Single-Cell 3′ version 3 Library Kit, following these steps: (1) fragmentation, end repair and A-tailing; (2) SPRIselect cleanup; (3) adapter ligation; (4) post ligation cleanup with SPRIselect; (5) sample index PCR; (6) PostindexPCR cleanup. The barcoded sequencing libraries were analyzed using quantitative PCR (cat #KK4824, KAPA Biosystems Library Quantification Kit for Illumina platforms). Sequencing libraries were transferred to the Duke University Center for Genomic and Computational Biology (GCB) and were loaded on a NovaSeq6000 (Illumina) for sequencing.
scRNA seq data analysis. Sequencing data was de-multiplexed, trimmed, filtered, aligned, and quantified using the Cell Ranger pipeline (10× Genomics). Reads were aligned to CSC mm10 transcriptome and UMI count matrices for each sample was obtained. The Seurat v3.1 package was used to count matrices. For each sample, cells that express <200 or >2000 genes and cells that express >5% of mitochondrial genes were removed. Highly variable genes were identified and used for principal component analysis. Cell subpopulations were identified using the ‘FindNeighbors’ function with first 30 PCs and ‘FindClusters’ function from Seurat R package with default resolution parameters. Cells were then clustered and visualized using uniform manifold approximation and projection (UMAP) (Liu, Int. J. Mol. Sci. 2020, 21, 16). DE Wilcoxon test analysis was used to identify genes that define a cluster using known cell type signatures and genes that differ within clusters between treatments.
Pseudotime Analysis. To infer the developmental trajectories in the monocyte/macrophage lineages, Monocle3 was used to perform the pseudotime analysis where UMAP coordinates from Seurat were used as input (Cao et al., Nature 2019, 566, 498-502). The graphtest function implemented in Monocle3 was used to find genes that vary with pseudotime where genes with q<0.01 were identified as pseudotime-dependent genes. Cells were divided into four pseudotime blocks (e.g., 0-5, 5-10, 10-15, and 15-21) based on their pseudotime estimate.

[1] = CD68+ cells, Genes down-regulated upon E2 treatment
[2] = CD68+ cells, Genes up-regulated upon E2 treatment

For 17β-estradiol [E2], the “AA467197 avg_logFC” value [1] was −1.1474, the “Actg1 avg_logFC” value [1] was −0.2725 and the “Adam8 avg_logFC” value [1] was −0.5315. The “Arg1 avg_logFC” value [1] was −1.491, the “Arl4c avg_logFC” value [1] was −0.3255 and the “Ass1 avg_logFC” value [1] was −0.2981. The “B4galt1 avg_logFC” value [1] was −0.2593, the “Bhlhe40 avg_logFC” value [1] was −0.4214 and the “Bnip3 avg_logFC” value [1] was −0.3241. For the same substance, the “Cbl avg_logFC” value [1] was −0.2587, the “Ccl24 avg_logFC” value [1] was −1.196 and the “Cd44 avg_logFC” value [1] was −0.3636. The “Cd53 avg_logFC” value [1] was −0.2831, the “Cdh1 avg_logFC” value [1] was −0.4682 and the “Cish avg_logFC” value [1] was −0.2878. For the same substance, the “Clec7a avg_logFC” value [1] was −0.6823, the “Clic4 avg_logFC” value [1] was −0.2836 and the “Cox17 avg_logFC” value [1] was −0.2516. For the same substance, the “Csrnp1 avg_logFC” value [1] was −0.2796, the “Cxcl2 avg_logFC” value [1] was −0.3108 and the “Dazap2 avg_logFC” value [1] was −0.253. For the same substance, the “Ddx3x avg_logFC” value [1] was −0.2648, the “Dusp5 avg_logFC” value [1] was −0.2644 and the “Emp1 avg_logFC” value [1] was −0.3016. The “Epb41l2 avg_logFC” value [1] was −0.2668, the “Ero1l avg_logFC” value [1] was −0.3681 and the “Errfi1 avg_logFC” value [1] was −0.2612. For the same substance, the “Etv3 avg_logFC” value [1] was −0.2533, the “Fam129b avg_logFC” value [1] was −0.2732 and the “Gatm avg_logFC” value [1] was −0.4728. For the same substance, the “Gm13339 avg_logFC” value [1] was −0.3235, the “Gm42418 avg_logFC” value [1] was −0.3099 and the “Grina avg_logFC” value [1] was −0.2527. The “Havcr2 avg_logFC” value [1] was −0.2738, the “Hbegf avg_logFC” value [1] was −0.2883 and the “Hexim1 avg_logFC” value [1] was −0.2598. The “Hif1a avg_logFC” value [1] was −0.3016, the “Hilpda avg_logFC” value [1] was −0.3818 and the “Hk2 avg_logFC” value [1] was −0.3161. For the same substance, the “Hnrnpa2b1 avg_logFC” value [1] was −0.2507, the “Hnrnpu avg_logFC” value [1] was −0.2502 and the “Id2 avg_logFC” value [1] was −0.3235. For the same substance, the “Ifi202b avg_logFC” value [1] was −0.4589, the “Ighm avg_logFC” value [1] was −0.2694 and the “Il1rn avg_logFC” value [1] was −0.7087. For the same substance, the “Itgax avg_logFC” value [1] was −0.2718, the “Jak2 avg_logFC” value [1] was −0.3294 and the “Lars2 avg_logFC” value [1] was −0.2737. For the same substance, the “Lcp1 avg_logFC” value [1] was −0.279, the “Lyz1 avg_logFC” value [1] was −0.3109 and the “Mafb avg_logFC” value [1] was −0.2732. The “Malt1 avg_logFC” value [1] was −0.4497, the “Mir6236 avg_logFC” value [1] was −0.4795 and the “Mmp14 avg_logFC” value [1] was −0.4234. The “N4bp1 avg_logFC” value [1] was −0.2723, the “Nampt avg_logFC” value [1] was −0.2539 and the “Nfkb1 avg_logFC” value [1] was −0.3187. For the same substance, the “Pabpc1 avg_logFC” value [1] was −0.3065, the “Plek avg_logFC” value [1] was −0.3121 and the “Prkcd avg_logFC” value [1] was −0.4952. The “Ptgs2 avg_logFC” value [1] was −0.2589, the “Qsox1 avg_logFC” value [1] was −0.2981 and the “Rbbp6 avg_logFC” value [1] was −0.2693. The “Rbms1 avg_logFC” value [1] was −0.306, the “Rbpj avg_logFC” value [1] was −0.2858 and the “Retnla avg_logFC” value [1] was −1.013. For the same substance, the “Rgcc avg_logFC” value [1] was −0.3356, the “Rhob avg_logFC” value [1] was −0.3443 and the “Rnf19b avg_logFC” value [1] was −0.4071. For the same substance, the “Rpl23a avg_logFC” value [1] was −0.3395, the “Scd2 avg_logFC” value [1] was −0.3267 and the “Sdc4 avg_logFC” value [1] was −0.5729. The “Slc2a1 avg_logFC” value [1] was −0.2726, the “Slc7a2 avg_logFC” value [1] was −0.4582 and the “Slc7a11 avg_logFC” value [1] was −0.3846. The “Slpi avg_logFC” value [1] was −0.3695, the “Smox avg_logFC” value [1] was −0.2743 and the “Spp1 avg_logFC” value [1] was −0.5367. The “Srgn avg_logFC” value [1] was −0.3751, the “Tapbp avg_logFC” value [1] was −0.2542 and the “Tes avg_logFC” value [1] was −0.2663. For the same substance, the “Tgfbi avg_logFC” value [1] was −0.2874, the “Tgm2 avg_logFC” value [1] was −0.345 and the “Timp1 avg_logFC” value [1] was −0.3922. For the same substance, the “Ywhaz avg_logFC” value [1] was −0.3465, the “Zeb2 avg_logFC” value [1] was −0.2704 and the “Zfp36l2 avg_logFC” value [1] was −0.2732. For the same substance, the “AF251705 avg_logFC” value [2] was 0.2639, the “Al607873 avg_logFC” value [2] was 0.2786 and the “Apoe avg_logFC” value [2] was 0.569. For the same substance, the “Arl5c avg_logFC” value [2] was 0.2656, the “Bst2 avg_logFC” value [2] was 0.2961 and the “C1qa avg_logFC” value [2] was 0.4214. The “C1qb avg_logFC” value [2] was 0.5188, the “C1qc avg_logFC” value [2] was 0.4208 and the “Ccrl2 avg_logFC” value [2] was 0.3263. The “Cd14 avg_logFC” value [2] was 0.2715, the “Cd48 avg_logFC” value [2] was 0.2715 and the “Cfh avg_logFC” value [2] was 0.2625. The “Chil3 avg_logFC” value [2] was 1.253, the “Ckb avg_logFC” value [2] was 0.2847 and the “Cst3 avg_logFC” value [2] was 0.3446. For the same substance, the “Dpep2 avg_logFC” value [2] was 0.3725, the “Fcer1g avg_logFC” value [2] was 0.3137 and the “Fcrls avg_logFC” value [2] was 0.5638. For the same substance, the “Gdf3 avg_logFC” value [2] was 0.2851, the “Gm10076 avg_logFC” value [2] was 0.3757 and the “Gm10222 avg_logFC” value [2] was 0.2577. For the same substance, the “H2-D1 avg_logFC” value [2] was 0.2808, the “Hint1 avg_logFC” value [2] was 0.2548 and the “Id3 avg_logFC” value [2] was 0.2699. For the same substance, the “Ifi27l2a avg_logFC” value [2] was 0.5245, the “Ifitrn2 avg_logFC” value [2] was 0.374 and the “Ifitrn3 avg_logFC” value [2] was 0.2755. The “Itga6 avg_logFC” value [2] was 0.3437, the “Itm2b avg_logFC” value [2] was 0.4104 and the “Lrg1 avg_logFC” value [2] was 0.3663. For the same substance, the “Ly6c2 avg_logFC” value [2] was 0.2657, the “Lyz2 avg_logFC” value [2] was 0.2885 and the “Mgl2 avg_logFC” value [2] was 0.5712. For the same substance, the “Mt1 avg_logFC” value [2] was 0.4006, the “Pf4 avg_logFC” value [2] was 0.4715 and the “Rgs10 avg_logFC” value [2] was 0.2599. The “Rpl3 avg_logFC” value [2] was 0.278, the “Rpl9 avg_logFC” value [2] was 0.2585 and the “Rpl21 avg_logFC” value [2] was 0.2567. For the same substance, the “Rpl29 avg_logFC” value [2] was 0.2548, the “Rplp0 avg_logFC” value [2] was 0.333 and the “Rps2 avg_logFC” value [2] was 0.2742. The “Rps11 avg_logFC” value [2] was 0.2704, the “Rps20 avg_logFC” value [2] was 0.2922 and the “S100a8 avg_logFC” value [2] was 0.7858. For the same substance, the “Thbs1 avg_logFC” value [2] was 0.3189, the “Trem2 avg_logFC” value [2] was 0.4831 and the “Tspo avg_logFC” value [2] was 0.2604. The “Tmem176 avg_logFC” value (CD68+ cells, Genes up-regulated upon E2 treatment, first Tmem176 line) was 0.3209, the “Tmem176 avg_logFC” value (CD68+ cells, Genes up-regulated upon E2 treatment, second Tmem176 line) was 0.3394 and the “inflammation/chemokine genes (Itm2b, C1q) and M2 macrophage markers (Tspo, Vegfa, Tgm2) in CD68+ cells” value (E2 group) was “upregulated”. The “TAM markers (Trem2, Apoe, Thbs1, Spp1) in CD68+ monocyte/TAM population” value (E2 treated tumors) was “expressed”, the “CD68+ monocytes/TAMs clusters” value (E2 vs placebo) was “expansion and significant changes in gene expression” and the “cluster 1 (M1-like TAMs)” value (E2 vs placebo) was “remained unchanged”. For the same substance, the “cluster 3 (inflammatory monocytes)” value (E2 vs placebo) was “increased”, the “cluster 8” value (E2 vs placebo) was “expansion” and the “cluster 9 (immune-suppressive phenotype)” value (E2 vs placebo) was “significant expansion”. The “cluster 15 (M1-like TAMs)” value (E2 vs placebo) was “decreased”, the “cluster 16 (patrolling tissue resident monocytes)” value (E2 vs placebo) was “increased” and the “cluster 22” value (E2 vs placebo) was “remained unchanged”. The “cluster 30” value (E2 vs placebo) was “expansion” and the “percentage of Ly6C^hi monocytes (cluster 2)” value (E2 vs placebo) was “remained the same”.
